Here are results for one compound from paper PMC8026479 (Cancer Chemotherapy and Pharmacology, 2021).

The test system of data set [1] is transition rate constant from G1 to cycling for HSPCs. Description: Semi-mechanistic multi-compartment PK/PD model of hematopoiesis. The settings on record: conservative modification of literature estimate; elimination rate constant 1/h. More on the design: species or system mouse, rat, and dog. The source says:
Owing to the invasive nature of the PD marker collection (i.e. bone marrow aspiration), a semi-mechanistic PK/PD model based on animal PK/PD data and human PK data was developed to guide the selection of an optimal dose level for bone marrow aspiration in humans during dose escalation in the Phase I first-in-human study. The model was constructed using PK data from four species (mouse, rat, dog, and human) and PD data from three species (mouse, rat, and dog; Online Resources 1 and 2).
The PK/multi-compartment PD model was based on a myelosuppression model previously published by Friberg et al., with modifications. […] In the model used in the current study, stem cells and progenitor cells were separated into two compartments, with experimental data measured for each compartment. […] Another important deviation from the Friberg model was the mechanism postulated for the homeostasis of the […] (PMNs). We postulated that the feedback mechanism has a set point target and that deviations from that target would accelerate (in the case of too few PMNs) or decelerate (in the case of too many PMNs) the transition of G1-phase cells to S-phase cells in the stem cell population.
The model was constructed in two stages. First, preclinical PK data (e.g. doses, routes, and schedule of administration, observed concentrations) were compiled and modeled by allometric scaling. A sequential PK/PD modeling approach (population PK parameters and data approach) was then employed in which a semi-mechanistic PD model with various physiological compartments was created, and specific assumptions entered (Online Resource 3). Traditional forward addition/backward elimination was used for PK modeling. […] Many parameters in this complex model could not be estimated and were fixed either to the literature values or values selected on the basis of discussions with domain experts and sensitivity analysis. In preclinical animal models, the PD analysis modeled bone marrow cells positive for 5′-ethynyl-2′-deoxyuridine (EdU) and peripheral neutrophil counts simultaneously. […]

For data set [2] the following is noted: cited from earlier work.

Regarding `O=c1[nH]cc(F)c(=O)[nH]1` [5-FU, 5-fluorouracil, reference compound], the “pharmacologic activity half-life of 5-FU” value in data set [1] was 42 min. For the same compound, in data set [2], the “half-life of 5-FU, literature estimate” value is 8 to 20 min.
